Entries after “also recorded” stand apart in the source; their conditions may differ.
Experiments:
human neutrophils [1] = experiment: Neutrophil spreading on FBS-coated glass coverslips (phase-contrast microscopy); assay type: cell-based; settings: TNF 100 ng/ml
Protocol: Glass coverslips were placed in 12 well tissue culture plate and coated with FBS in 5% CO2 at 37° C. for at least 1 h and washed three times with 0.9% saline. Neutrophils (2×10^6) were added to each well containing a FBS-coated glass coverslip and 1 ml of reaction mixture and incubated or not with each compound at 37° C. for 30 min before stimulation with TNF (100 ng/ml), PMA (100 ng/ml) or an equal volume of KRPG. Cells were fixed with 2% paraformaldehyde and 3.7% formaldehyde buffer, and photographed with phase-contrast microscope.
To determine whether any of these compounds are implicated in cytoskeletal rearrangement, neutrophils were treated with a compound of the present invention or DMSO and then activated with PMA or TNF. Human neutrophils, isolated as described herein above were plated on FBS-coated glass coverslips and incubated or not with a compound of the present invention at 37° C. for 30 min, followed by stimulation with TNF (100 ng/ml), PMA (100 ng/ml) or an equal volume of KRPG, fixed, and photographed with phase-contrast microscope. Neutrophils adhere and fully spread when activated. However, cells exposed to TNF after incubation with Comp I-IV were arrested in spreading. These compounds seem to block different stages of cell spreading. […] They display almost round and close to non-stimulated cell morphology to quite advanced, yet arrested phenotype before full spreading. […] None of the compounds impeded cell spreading induced by PMA.

human neutrophils [2] = experiment: TNF triggered degranulation of neutrophils (lactoferrin and myeloperoxidase release, ELISA); assay type: cell-based; settings: for myeloperoxidase (MPO) release triggered by TNF: marker of azurophil granule; for lactoferrin (LF) release triggered by TNF: marker of specific granule
Protocol: Respiratory burst was measured as described elsewhere (De la Harpe et al., “A Semi-Automated Micro-Assay for H2O2 Release by Human Blood Monocytes and Mouse Peritoneal Macrophages,” J Immunol Methods 78:323-336 (1985), which is hereby incorporated by reference in its entirety). Briefly, 96-well flat-bottomed plates (Primaria, Falcon) were coated with 50 μl/well of FBS in 5% CO2 at 37° C. for at least 1 h and washed three times with 0.9% saline. Neutrophils (1.5×10^4) were added to triplicate wells containing 100 μl of reaction mixture (2.4 nm scopoletin, 0.5 μg horseradish peroxidase (HRP), and 1 mM NaN3) and stimulated with either buffer control, TNF (PreproTech, London, UK) or phorbol myristate acetate (PMA), each at 100 ng/ml. The reduction of scopoletin by H2O2 was recorded every 15 min on a plate-reading fluorometer until H2O2 release reached plateau and the amount of H2O2 released calculated as described (De la Harpe et al., “A Semi-Automated Micro-Assay for H2O2 Release by Human Blood Monocytes and Mouse Peritoneal Macrophages,” J Immunol Methods 78:323-336 (1985), which is hereby incorporated by reference in its entirety). The supernatant from the H2O2 release assay with 1.5×10^4 neutrophils was used to measure degranulation using lactoferrin (LF) or myeloperoxidase (MPO) ELISA kit (Oxis International, Inc., Portland, Oreg.). Spontaneous cell death from the same supernatant was measured using Cytotoxicity Detection Kit (Roche Molecular Biochemicals, Nutley, N.J.). The total cell content of LF, MPO, and lactate dehydrogenase (LDH) was determined after lysing cells with 1% Triton X100. LDH is a cytosolic enzyme whose release indicates cell lysis, such that high release of LF or MPO in the face of low release of LDH is taken as a measure of degranulation.
To test whether any of these compounds has any role in degranulation, the release of lactoferrin (LF) (as a marker of specific granule) and myeloperoxidase (MPO, as a marker of azurophil granule) were measured in the supernatant. […] The effect of Comp I on LF release was inconclusive due to high background release of LF in non-stimulated cells.

Structure (SMILES)	cell spreading triggered by TNF (human neutrophils [1])	myeloperoxidase (MPO) release triggered by TNF (human neutrophils [2])	lactoferrin (LF) release triggered by TNF (human neutrophils [2])	degranulation of neutrophils (general statement) (human neutrophils [2])
O=C(CSc1nc2ccccc2s1)N/N=C/c1cc([N+](=O)[O-])ccc1O [Comp IV, (Benzothiazol-2-ylsulfanyl)-acetic acid (2-hydroxy-5-nitro-benzylidene) -hydrazide]	arrested after flattening and extending several filopodia	almost complete inhibition	partially inhibited	
Cc1nc(N/N=C/c2ccccc2O)c2c3c(sc2n1)CCCC3 [Comp I, 2-[(2-Methyl-5,6,7,8-tetrahydro-benzo[4,5]thieno [2,3-a]pyrimidin-4-yl)-hydrazonomethyl]-phenol]	very heterogeneous morphology	almost complete inhibition	inconclusive	
O=C1CC(c2ccccc2)=NN1c1cccc(Cl)c1 [Comp II, 2-(3-Chloro-phenyl)-5-phenyl-2,4-dihydro-pyrazol-3-one]	arrested after flattening and extending several filopodia; also recorded: inhibited	very moderate inhibition	did not block	takes place normally; also recorded: sparing
C(=N\Nc1ncnc2sc3c(c12)CCCC3)/c1cccnc1 [Comp III, N-Pyridin-3-ylmethylene-N-(5,6,7,8-tetrahydro-benzo[4,5] [2,3-a]pyrimidin-4-yl)-hydrazine]	after extending a few pseudopodia; also recorded: block cell spreading at the earliest stage	almost complete inhibition	partially inhibited	
